Test [1] concerns the target CDK7 (Homo sapiens (Human), UniProt P50613). Description: In vitro inhibitory activity against CDK7 (Table 1). In kind it is biochemical. The method, then:
In vitro kinase assays with immunoprecipitated proteins (or recombinant CAK complexes) were performed as follows. Kinase reactions were performed in 25 μL of final volume of reaction buffer (50 mM Hepes, pH 7.5, 150 mM NaCl, 10 mM MgCl2, 5% glycerol, 25 μM ATP, and 10 μCi of [γ-32P]ATP). Each reaction contained 1 μg of RNAP II. Incubation was at 30° C. for 30-45 min. Reactions were terminated by addition of 5 μL of 5×SDS-PAGE sample buffer and incubated at 95° C. for 5 min. Reactions were analyzed by SDS-PAGE, and the dried gel was exposed to film or PhosphorImager plate.

In test [2] the test system is Jurkat. Description: Jurkat (proliferation, CellTiter-Glo). It is filed as cell-based. Particulars: Homo sapiens, Jurkat; read-out: Calculated IC50, Jurkat.
In test [3] the target is IRAK1 (Homo sapiens (Human), UniProt P51617). Put plainly: Life Technologies Adapta kinase assay, IRAK1. It is filed as biochemical. The conditions noted are these: superscript b (footnote not given; tested at 100 nM and 1 μM).
Test [4] deals with MLK3 (Homo sapiens (Human), UniProt Q16584). Put plainly: Life Technologies LanthaScreen Eu kinase assay, MLK3. It is filed as binding. The conditions noted are these: superscript b (footnote not given; tested at 100 nM and 1 μM). A general note: Time-resolved FRET reads energy transfer from a long-lived donor to a nearby acceptor.
Test [5] has as its system HL60. Put plainly: Proliferation assay, CellTiter-Glo, 72 hour. It is filed as cell-based. The conditions noted are these: Homo sapiens, HL-60, blood cancer cell line, read-out: Inhibition of proliferation, HL60. (ATP-based viability assays read luminescence as a measure of living cells.)
In test [6] the test system is SKBR3. Put plainly: Proliferation assay, CellTiter-Glo, 72 hour. It is filed as cell-based. Particulars: Homo sapiens, SK-BR-3, breast cancer cell line, read-out: Inhibition of proliferation, SKBR3.
In test [7] the test system is SAOS. Put plainly: Proliferation assay, CellTiter-Glo, 72 hour. In kind it is cell-based. The conditions noted are these: osteosarcoma cell line, read-out: Inhibition of proliferation, SAOS.
Test [8] relates to MCF7. Put plainly: Proliferation assay, CellTiter-Glo, 72 hour. It is filed as cell-based. Particulars: Homo sapiens, MCF7, breast cancer cell line, read-out: Inhibition of proliferation, MCF7.
For test [9], the system named is RD-ES. Description: Proliferation assay, CellTiter-Glo, 72 hour. Particulars: RD-ES, Ewing's sarcoma cell line, read-out: Inhibition of proliferation, RD-ES. It is filed as cell-based.
In test [10] the test system is MDA-MB231. Put plainly: Proliferation assay, CellTiter-Glo, 72 hour. It is filed as cell-based. The conditions noted are these: Homo sapiens, MDA-MB-231, breast cancer cell line, read-out: Inhibition of proliferation, MDA-MB231.
For test [11], the system named is MV4-11. Put plainly: Proliferation assay, CellTiter-Glo, 72 hour. In kind it is cell-based. Particulars: Homo sapiens, MV4-11, blood cancer cell line, read-out: Inhibition of proliferation, MV4-11.
The test system of test [12] is SK-ES. Put plainly: Proliferation assay, CellTiter-Glo, 72 hour. In kind it is cell-based. The conditions noted are these: Ewing's sarcoma cell line, read-out: Inhibition of proliferation, SK-ES.
In test [13] the test system is hTERT-HME1. Put plainly: Proliferation assay, CellTiter-Glo, 72 hour. It is filed as cell-based. Particulars: hTERT-HME1, immortalized normal mammary epithelial cell line, read-out: Inhibition of proliferation, hTERT-HME1.
Test [14] relates to 143B. Put plainly: Proliferation assay, CellTiter-Glo, 72 hour. The conditions noted are these: Homo sapiens, 143B, osteosarcoma cell line, read-out: Inhibition of proliferation, 143B. In kind it is cell-based.
Test [15] has as its system RS4-11. Description: Proliferation assay, CellTiter-Glo, 72 hour. In kind it is cell-based. Particulars: Homo sapiens, RS4-11, blood cancer cell line, read-out: Inhibition of proliferation, RS4-11.
Test [16] deals with T47D. Put plainly: Proliferation assay, CellTiter-Glo, 72 hour. It is filed as cell-based. Particulars: Homo sapiens, T47D, breast cancer cell line, read-out: Inhibition of proliferation, T47D.
Test [17] deals with THP-1. Description: Proliferation assay, CellTiter-Glo, 72 hour. In kind it is cell-based. The conditions noted are these: Homo sapiens, THP-1, blood cancer cell line, read-out: Inhibition of proliferation, THP-1.
Test [18] has as its system A673. Description: Proliferation assay, CellTiter-Glo, 72 hour. In kind it is cell-based. Particulars: Homo sapiens, A673, Ewing's sarcoma cell line, read-out: Inhibition of proliferation, A673.
Test [19] concerns MCF10A. Put plainly: Proliferation assay, CellTiter-Glo, 72 hour. It is filed as cell-based. The conditions noted are these: Homo sapiens, MCF-10A, non-tumorigenic breast epithelial cell line, read-out: Inhibition of proliferation, MCF10A.
Test [20] relates to Hs863T. Put plainly: Proliferation assay, CellTiter-Glo, 72 hour. In kind it is cell-based. Particulars: Ewing's sarcoma cell line, read-out: Inhibition of proliferation, Hs863T.
The test system of test [21] is Hs822T. Description: Proliferation assay, CellTiter-Glo, 72 hour. In kind it is cell-based. Particulars: Ewing's sarcoma cell line, read-out: Inhibition of proliferation, Hs822T.
In test [22] the test system is MNNG-HOS Cl#5. Put plainly: Proliferation assay, CellTiter-Glo, 72 hour. The conditions noted are these: osteosarcoma cell line, read-out: Inhibition of proliferation, MNNG-HOS Cl#5. In kind it is cell-based.

Chain of CDK7 (P50613 whole entry, looked up): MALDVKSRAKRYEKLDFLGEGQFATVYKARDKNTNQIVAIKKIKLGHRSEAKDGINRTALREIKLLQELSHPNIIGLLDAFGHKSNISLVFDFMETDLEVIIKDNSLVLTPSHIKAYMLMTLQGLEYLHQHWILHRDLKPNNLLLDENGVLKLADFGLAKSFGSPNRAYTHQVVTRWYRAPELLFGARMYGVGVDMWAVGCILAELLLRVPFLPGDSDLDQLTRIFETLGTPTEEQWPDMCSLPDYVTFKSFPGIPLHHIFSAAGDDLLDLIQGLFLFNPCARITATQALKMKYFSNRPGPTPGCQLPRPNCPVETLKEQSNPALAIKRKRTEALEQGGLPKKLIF
Chain of CDK7 (P51946 whole entry partner, looked up): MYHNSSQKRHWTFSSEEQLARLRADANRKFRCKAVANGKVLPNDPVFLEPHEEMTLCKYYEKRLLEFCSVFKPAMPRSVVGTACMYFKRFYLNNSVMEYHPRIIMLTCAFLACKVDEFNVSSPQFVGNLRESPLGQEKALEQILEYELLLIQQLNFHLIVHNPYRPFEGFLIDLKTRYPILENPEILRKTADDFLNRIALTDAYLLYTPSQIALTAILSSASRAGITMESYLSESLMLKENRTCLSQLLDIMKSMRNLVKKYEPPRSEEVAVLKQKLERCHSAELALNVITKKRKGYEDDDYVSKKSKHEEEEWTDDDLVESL
Chain of CDK7 (P51948 whole entry partner, looked up): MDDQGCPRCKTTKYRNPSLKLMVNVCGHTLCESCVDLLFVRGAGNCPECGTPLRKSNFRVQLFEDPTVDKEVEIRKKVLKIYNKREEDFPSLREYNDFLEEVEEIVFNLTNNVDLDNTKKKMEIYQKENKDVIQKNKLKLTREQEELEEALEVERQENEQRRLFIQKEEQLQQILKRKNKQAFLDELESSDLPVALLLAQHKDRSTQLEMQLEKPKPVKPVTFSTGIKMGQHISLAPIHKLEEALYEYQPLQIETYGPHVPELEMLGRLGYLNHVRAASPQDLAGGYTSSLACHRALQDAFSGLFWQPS
Chain of MLK3 (Q16584 whole entry): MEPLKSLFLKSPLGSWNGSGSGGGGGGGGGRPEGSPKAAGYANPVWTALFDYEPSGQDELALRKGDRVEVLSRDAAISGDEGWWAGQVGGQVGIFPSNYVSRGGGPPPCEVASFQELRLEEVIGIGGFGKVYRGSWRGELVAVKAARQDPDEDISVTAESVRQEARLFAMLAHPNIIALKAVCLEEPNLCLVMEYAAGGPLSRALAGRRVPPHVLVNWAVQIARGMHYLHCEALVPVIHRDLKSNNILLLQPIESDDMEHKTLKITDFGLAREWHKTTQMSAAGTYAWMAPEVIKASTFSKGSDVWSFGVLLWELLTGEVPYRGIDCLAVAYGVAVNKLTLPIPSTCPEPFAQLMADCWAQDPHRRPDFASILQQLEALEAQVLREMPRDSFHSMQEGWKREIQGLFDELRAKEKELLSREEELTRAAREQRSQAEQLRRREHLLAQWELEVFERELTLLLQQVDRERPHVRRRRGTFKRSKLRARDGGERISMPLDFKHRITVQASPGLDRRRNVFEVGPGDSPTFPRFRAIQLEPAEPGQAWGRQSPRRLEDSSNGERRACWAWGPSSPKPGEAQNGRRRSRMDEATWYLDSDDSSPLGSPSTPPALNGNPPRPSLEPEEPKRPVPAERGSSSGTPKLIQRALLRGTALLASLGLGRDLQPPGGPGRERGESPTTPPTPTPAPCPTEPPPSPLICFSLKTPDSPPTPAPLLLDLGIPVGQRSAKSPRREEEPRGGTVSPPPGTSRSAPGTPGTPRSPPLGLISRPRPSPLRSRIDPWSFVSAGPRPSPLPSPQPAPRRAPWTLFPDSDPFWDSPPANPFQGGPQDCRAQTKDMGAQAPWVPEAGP
Chain of IRAK1 (P51617 whole entry): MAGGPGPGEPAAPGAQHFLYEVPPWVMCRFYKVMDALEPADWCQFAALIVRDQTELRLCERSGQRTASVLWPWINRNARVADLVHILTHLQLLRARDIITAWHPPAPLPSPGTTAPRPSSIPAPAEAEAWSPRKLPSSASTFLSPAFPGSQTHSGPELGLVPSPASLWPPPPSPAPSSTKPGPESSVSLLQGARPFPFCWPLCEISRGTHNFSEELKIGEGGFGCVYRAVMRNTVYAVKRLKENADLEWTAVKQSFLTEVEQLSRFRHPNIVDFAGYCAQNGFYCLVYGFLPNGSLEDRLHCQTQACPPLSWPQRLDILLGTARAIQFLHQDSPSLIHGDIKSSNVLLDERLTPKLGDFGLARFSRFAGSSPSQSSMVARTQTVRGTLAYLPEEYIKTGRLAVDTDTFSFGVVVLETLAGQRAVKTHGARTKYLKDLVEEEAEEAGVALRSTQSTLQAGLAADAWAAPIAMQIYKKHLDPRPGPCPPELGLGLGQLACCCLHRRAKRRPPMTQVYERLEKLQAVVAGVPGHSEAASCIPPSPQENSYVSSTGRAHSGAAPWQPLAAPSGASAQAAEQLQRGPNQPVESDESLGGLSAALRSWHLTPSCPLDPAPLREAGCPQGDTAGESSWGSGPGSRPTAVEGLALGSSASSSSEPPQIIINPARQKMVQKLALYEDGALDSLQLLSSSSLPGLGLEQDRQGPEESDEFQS

`CCc1cnc(Nc2cccc(NC(=O)c3ccc(NC(=O)/C=C/CN(C)C)cc3)c2)nc1-c1c[nH]c2ccccc12` [Formula I-21] yielded an IC50 in test [1] of 22.7 nM.

On to `CN(C)C/C=C/C(=O)Nc1ccc(S(=O)(=O)Nc2cccc(Nc3ncc(Cl)c(-c4c[nH]c5ccccc45)n3)c2)cc1` [Formula I-52, (E)-N-(4-(N-(3-(5-chloro-4-(1H-indol-3-yl)pyrimidin-2-ylamino)phenyl)sulfamoyl)phenyl)-4-(dimethylamino)but-2-enamide], for which the IC50 in test [2] is 100 to 1000 nM.

In test [1], `CN(C)C/C=C/C(=O)Nc1ccc(C(=O)Nc2cccc(Nc3nc(-c4c[nH]c5ccccc45)c4ccccc4n3)c2)cc1` [Formula I-33] registered an IC50 of 1420 nM.

The compound `Cc1nc(C)c(-c2nc(Nc3cccc(NC(=O)c4ccc(NC(=O)/C=C/CN(C)C)cc4)c3)ncc2Cl)s1` [Formula I-50] yielded an IC50 in [1] of 92.3 nM.

In the case of `CN(C)C/C=C/C(=O)Nc1ccc(C(=O)Nc2cccc(Nc3ncc(Cl)c(-c4cn(C)c5ccccc45)n3)c2)cc1` [Formula I-28], the IC50 in test [1] came out at 238 nM.

In [1], `CN(C)C/C=C/C(=O)Nc1ccc(C(=O)Nc2ccc(Cl)c(Nc3ncc(Cl)c(-c4c[nH]c5ccccc45)n3)c2)cc1` [Formula I-25] came in with an IC50 of 87.8 nM.

`CN(C)C/C=C/C(=O)Nc1ccc(C(=O)Nc2cccc(Nc3ncc(C(F)(F)F)c(-c4c[nH]c5ccccc45)n3)c2)cc1` [Formula I-42]: in [1], the IC50 worked out at 35.7 nM.

For the compound `CN(C)C/C=C/C(=O)Nc1ccc(C(=O)Nc2cccc(Nc3ncc(Cl)c(-c4ccc5cc[nH]c5c4)n3)c2)cc1` [Formula I-32], in test [1], the IC50 was determined as 1180 nM.

With `Cc1cnc(Nc2cccc(NC(=O)c3ccc(NC(=O)/C=C/CN(C)C)cc3)c2)nc1-c1c[nH]c2cccc(C)c12` [Formula I-41], the IC50 in test [1] came out at 809 nM.

Consider `CN(C)C/C=C/C(=O)Nc1ccc(C(=O)Nc2cccc(Nc3ncc(Cl)c(-c4cccc5[nH]ccc45)n3)c2)cc1` [Formula I-30], for which the IC50 in test [1] amounted to 347 nM.

`Cc1cccc2[nH]cc(-c3ccnc(Nc4cccc(NC(=O)c5ccc(NC(=O)/C=C/CN(C)C)cc5)c4)n3)c12` [Formula I-40]: the IC50 in test [1] came out at 3470 nM.

Take `C=CC(=O)Nc1ccc(C(=O)Nc2cccc(Nc3ncc(Cl)c(-c4c[nH]c5ccccc45)n3)c2)cc1` [Formula I-24]: the IC50 in test [1] was found to be 40 nM.

The compound `CN(C)C/C=C/C(=O)Nc1ccc(C(=O)Nc2cccc(Nc3ncc(Cl)c(-c4cnc5[nH]ccc5c4)n3)c2)cc1` [Formula I-29] displayed an IC50 in [1] of 288 nM.

The compound `CN(C)C/C=C/C(=O)Nc1ccc(C(=O)Nc2cccc(Nc3nccc(-c4c[nH]c5ccccc45)n3)c2)cc1` [Formula I-44] displayed an IC50 in [1] of 391 nM.

Consider `Cc1ccc(Nc2ncc(C#N)c(-c3c[nH]c4ccccc34)n2)cc1NC(=O)c1ccc(NC(=O)/C=C/CN(C)C)cc1` [Formula I-56, (E)-N-(5-(5-cyano-4-(1H-indol-3-yl)pyrimidin-2-ylamino)-2-methylphenyl)-4-(4-(dimethylamino)but-2-enamido)benzamide], for which the “Percent inhibition, IRAK1^b” value in [3] is listed as “C (less than 50% inhibition)”. Besides, the “Percent inhibition, MLK3^b” value in test [4] is recorded as “C (less than 50% inhibition)”. In addition, the IC50 in test [2] was less than 100 nM.

In test [1], `CCSC(=O)CCNc1ccc(C(=O)Nc2cccc(Nc3ncc(Cl)c(-c4c[nH]c5ccccc45)n3)c2)cc1` [Formula I-37] returned an IC50 of 557 nM.

Take `CN(C)C/C=C/C(=O)Nc1cccc(C(=O)Nc2cccc(Nc3ncc(Cl)c(-c4c[nH]c5ccccc45)n3)c2)c1` [Formula I-18]: in [1], the IC50 is 13.9 nM.

For `CN(C)C/C=C/C(=O)Nc1ccc(S(=O)(=O)Nc2cccc(Nc3ncc(C#N)c(-c4c[nH]c5ccccc45)n3)c2)cc1` [Formula I-55, (E)-N-(4-(N-(3-(5-cyano-4-(1H-indol-3-yl)pyrimidin-2-ylamino)phenyl)sulfamoyl)phenyl)-4-(dimethylamino)but-2-enamide], the IC50 in [2] is 100 to 1000 nM.

On to `CN(C)C/C=C/C(=O)Nc1ccc(C(=O)Nc2cccc(Nc3ncc(Cl)c(-c4cc5ccccc5[nH]4)n3)c2)cc1` [Formula I-34], for which the IC50 in [1] came out at 4750 nM.

`CN(C)C/C=C/C(=O)Nc1ccc(C(=O)N(C)c2cccc(Nc3ncc(Cl)c(-c4c[nH]c5ccccc45)n3)c2)cc1` [Formula I-57, (E)-N-(3-(5-chloro-4-(1H-indol-3-yl)pyrimidin-2-ylamino)phenyl)-4-(4-(dimethylamino)but-2-enamido)-N-methylbenzamide]: in test [3], the “Percent inhibition, IRAK1^b” value is listed as “C (less than 50% inhibition)”. Also, the “Percent inhibition, MLK3^b” value in [4] was “C (less than 50% inhibition)”. For the same compound, in [2], the IC50 was no less than 1000 nM.

`CC(C)[C@]12O[C@H]1[C@@H]1O[C@]13[C@]1(O[C@H]1C[C@H]1C4=C(CC[C@@]13C)C(=O)OC4)[C@@H]2O` [Triptolide, triptolide, reference compound]: the IC50 in test [5], in test [6], in test [7], in [8], in test [9] and in test [10] was less than 500 nM each time. Further, the IC50 in [11] was less than 500 nM; in [12] it was less than 500 nM; in test [13], less than 500 nM; in [14] it was less than 500 nM; in test [15], less than 500 nM; in test [16], greater than 5000 nM. The IC50 in test [17] was less than 500 nM; in [18], less than 500 nM; in test [19] it was less than 500 nM; in test [20], greater than 5000 nM; in test [21] it was 500 to 5000 nM; in test [22] it was less than 500 nM.

Turning to `Cc1nc(Nc2cccc(NC(=O)c3ccc(NC(=O)/C=C/CN(C)C)cc3)c2)nc(-c2c[nH]c3ccccc23)c1C` [Formula I-39], in [1], the IC50 was determined as 1350 nM.

The compound `CN(C)C/C=C/C(=O)Nc1ccc(C(=O)Nc2cccc(Nc3ncc(Cl)c(-n4cnc5ccccc54)n3)c2)cc1` [Formula I-27] gave an IC50 in [1] of 201 nM.

In [1], `CN(C)C/C=C/C(=O)Nc1ccc(C(=O)Nc2cccc(Nc3ncc(Cl)c(-c4c(-c5ccccc5)nn5ccccc45)n3)c2)cc1` [Formula I-38] displayed an IC50 of 3010 nM.

The compound `Cc1ccc(NC(=O)c2ccc(NC(=O)/C=C/CN(C)C)cc2)cc1Nc1ncc(Cl)c(-c2c[nH]c3ccccc23)n1` [Formula I-22] had an IC50 in [1] of 32.6 nM.

`CN(C)C/C=C/C(=O)Nc1ccc(C(=O)Nc2cccc(Nc3ncc(C4CC4)c(-c4c[nH]c5ccccc45)n3)c2)cc1` [Formula I-26] showed an IC50 in [1] of 184 nM.

In test [1], `CN(C)C/C=C/C(=O)NCc1ccc(C(=O)Nc2cccc(Nc3ncc(Cl)c(-c4c[nH]c5ccccc45)n3)c2)cc1` [Formula I-43] returned an IC50 of 36.2 nM.

In turn, `Cc1cnc(Nc2cccc(NC(=O)c3ccc(NC(=O)/C=C/CN(C)C)cc3)c2)nc1-c1c[nH]c2ccccc12` [Formula I-19] came in with an IC50 in [1] of 15.7 nM.

As for `CN(C)C/C=C/C(=O)Nc1ccc(C(=O)Nc2cccc(Nc3ncc(Cl)c(-c4cccc5[nH]ccc45)n3)c2)cc1` [Formula I-31], in [1], the IC50 was 416 nM.

The values above are taken from patent US10787436B2, “Inhibitors of cyclin-dependent kinase 7 (CDK7)” (Dana-Farber Cancer Institute, Inc., priority 2012, dated 2020).
